# Measured values from patent publication US6355799B1, “Substituted benzene compounds, process for their preparation, and herbicidal and defoliant compositions containing them” (ISK Americas Incorporated, priority 1997, dated 2002).
# Columns and labels:
# Format in all cases: in vivo
# [1] = tested on: ivyleaf morningglory (Ipomoea hederacea, IPOHE); experiment: Post-emerge test, greenhouse herbicide activity screening; settings: post-emerge, 14 days after application, rating scale 0-100
# Text: (§1) A standard greenhouse herbicide activity screening system was used to evaluate the herbicidal efficacy and crop safety of these test compounds. Seven broadleaf weed species including redroot pigweed (Amaranthus retroflexus, AMARE, velvetleaf (Abutilon theophrasti, ABUTH), sicklepod (Cassia obtusifolia, CASOB), ivyleaf morningglory (Ipomoea hederacea, IPOHE), lambsquarters (Chenopodium album, CHEAL), common ragweed (Ambrosia artemisizfolia L., AMBEL), and cocklebur (Xanthium strumarium, XANST) were used as test species. Four grass weed species including green foxtail (Setaria viridis, SETVI), barnyardgrass (Echinochloa crus-galli, ECHCG), johnsongrass (Sorghum halepense, SORHA), and large crabgrass (Digitaria sanguinalis, DIGSA) were also used. In addition, three crop species, field corn (Zea mays L., var. Dekalb 535, CORN), soybean (Glycine max L., var. Pella 86, SOY), and is upland rice (Oryza sp., var. Tebonnet, RICE) were included.
# (§2) All plants were grown in 10 cm square plastic pots which were filled with a sandy loam soil mix. For pre-emerge tests, seeds were planted one day prior to application of the test compounds. For post-emerge tests, seeds were planted 8-21 days prior to the test to allow emergence and good foliage development prior to application of the test substances. At the time of the post-emerge application, plants of all species were usually at the 2-3 leaf stage of development.
# (§3) All test compounds Were dissolved in acetone and applied to the test units in a volume of 187 l /ha. Test materials were applied at rates ranging from 15 g ai/ha to 1000 g ai/ha using a track sprayer equipped with a TJ8001E even flow flat fan spray nozzle. Plants were arranged on a shelf so that the top of the canopy (post-emerge) or top of the soil surface (pre-emerge) was 40-45 cm below the nozzle. Pressurized air was used to force the test solution through the nozzle as it was mechanically advanced (via electrically driven chain drive) over the top of all test plants/pots. This application simulates a typical commercial field herbicide application.
# (§4) In the post-emerge test, a commercial non-ionic surfactant was also included (0.25% v/v) to enhance wetting of the leaf surfaces of target plants. Immediately after application, test units of the pre-emerge applications were watered at the soil surface to incorporate the test materials. Subsequently, these test units were bottom-watered. Post-emerge test units were always bottom-watered.
# (§5) At 14 days after application of the test materials, phytotoxicity ratings were recorded. A rating scale of 0-100 was used as previously described in Research Methods in Weed Science, 2nd edition, B. Truelove, Ed., Southern Weed Science Society, Auburn University, Auburn, Ala. 1977. Briefly, “0” corresponds to no damage and “100” corresponds to complete death of all plants in the test unit. This scale was used both to determine efficacy against weed species and damage to crop species. Herbicide activity data for various compounds of this invention, which are shown by compound No. in Tables 1-8, are shown in Tables 11 and 12.
# [2] = tested on: sicklepod (Cassia obtusifolia, CASOB); experiment: as above; settings: post-emerge, 14 days after application, rating scale 0-100
# Text: as §1, §2, §3, §4, §5
# [3] = tested on: redroot pigweed (Amaranthus retroflexus, AMARE); experiment: as above; settings: post-emerge, 14 days after application
# Text: as §1, §2, §3, §4, §5
# [4] = tested on: large crabgrass (Digitaria sanguinalis, DIGSA); experiment: as above; settings: post-emerge, 14 days after application, rating scale 0-100
# Text: as §1, §2, §3, §4, §5
# [5] = tested on: barnyardgrass (Echinochloa crus-galli, ECHCG); experiment: as above; settings: post-emerge, 14 days after application, rating scale 0-100
# Text: as §1, §2, §3, §4, §5
# [6] = tested on: velvetleaf (Abutilon theophrasti, ABUTH); experiment: as above; settings: post-emerge, 14 days after application, rating scale 0-100
# Text: as §1, §2, §3, §4, §5
# [7] = tested on: lambsquarters (Chenopodium album, CHEAL); experiment: as above; settings: post-emerge, 14 days after application, rating scale 0-100
# Text: as §1, §2, §3, §4, §5
# [8] = tested on: green foxtail (Setaria viridis, SETVI); experiment: as above; settings: post-emerge, 14 days after application, rating scale 0-100
# Text: as §1, §2, §3, §4, §5
# [9] = tested on: redroot pigweed (Amaranthus retroflexus, AMARE); experiment: Pre-emerge test, greenhouse herbicide activity screening; settings: pre-emerge, 14 days after application, rating scale 0-100
# Method in brief: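 Herbicidal damage is scored 0 (none) to 100 (complete plant death) two weeks after a simulated field spray. Rates span 15–1000 g ai/ha, delivered in acetone at 187 l/ha. For post-emergence treatments, plants have 2–3 leaves and the spray carries 0.25% v/v non-ionic surfactant.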
# [10] = tested on: upland rice (Oryza sp., var. Tebonnet, RICE); experiment: Pre-emerge test, crop safety; settings: pre-emerge, 14 days after application, rating scale 0-100
# Method in brief: (§6)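 Sandy loam pots; pre-emerge: sown 1 d pre-spray, surface-watered after, then bottom-watered. Post-emerge: sown 8–21 d before, 2–3 leaf stage, + 0.25% v/v NIS, bottom-watered. Acetone, 187 l/ha track spray, 15–1000 g ai/ha. 0–100 injury score, day 14.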
# [11] = tested on: field corn (Zea mays L., var. Dekalb 535, CORN); experiment: Pre-emerge test, crop safety; settings: pre-emerge, 14 days after application, rating scale 0-100
# Method in brief: as §6
# [12] = tested on: upland rice (Oryza sp., var. Tebonnet, RICE); experiment: Post-emerge test, crop safety; settings: post-emerge, 14 days after application, rating scale 0-100
# Method in brief: (§7)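 Plants grown in 10 cm pots of sandy loam mix received acetone-dissolved compounds through a moving flat-fan nozzle. Doses ranged from 15 to 1000 g ai/ha. Pre-emerge pots were seeded one day earlier, post-emerge pots 8–21 days earlier. Fourteen days on, each pot was graded 0–100 for damage.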
# [13] = tested on: field corn (Zea mays L., var. Dekalb 535, CORN); experiment: Post-emerge test, crop safety; settings: post-emerge, 14 days after application, rating scale 0-100
# Method in brief: as §7
# [14] = tested on: ivyleaf morningglory (Ipomoea hederacea, IPOHE); experiment: Pre-emerge test, greenhouse herbicide activity screening; settings: pre-emerge, 14 days after application, rating scale 0-100
# Text: as §1, §2, §3, §4, §5
# [15] = tested on: sicklepod (Cassia obtusifolia, CASOB); experiment: as above; settings: pre-emerge, 14 days after application, rating scale 0-100
# Text: as §1, §2, §3, §4, §5
# [16] = tested on: large crabgrass (Digitaria sanguinalis, DIGSA); experiment: as above; settings: pre-emerge, 14 days after application, rating scale 0-100
# Text: as §1, §2, §3, §4, §5
# [17] = tested on: barnyardgrass (Echinochloa crus-galli, ECHCG); experiment: as above; settings: pre-emerge, 14 days after application, rating scale 0-100
# Text: as §1, §2, §3, §4, §5
# [18] = tested on: velvetleaf (Abutilon theophrasti, ABUTH); experiment: as above; settings: pre-emerge, 14 days after application, rating scale 0-100
# Text: as §1, §2, §3, §4, §5
# [19] = tested on: lambsquarters (Chenopodium album, CHEAL); experiment: as above; settings: pre-emerge, 14 days after application, rating scale 0-100
# Text: as §1, §2, §3, §4, §5
# [20] = tested on: green foxtail (Setaria viridis, SETVI); experiment: as above; settings: pre-emerge, 14 days after application, rating scale 0-100
# Text: as §1, §2, §3, §4, §5
structure (smiles),measurement,setting,value
COc1c(Cl)cc(F)c(-n2c(=O)cc(C(F)(F)F)n(C)c2=O)c1NN=Cc1ccc2ccccc2c1 [15-22],Post-emerge Herbicidal Activity IPOHE (phytotoxicity rating),[1]; 63 g ai/ha,100
same,Post-emerge Herbicidal Activity IPOHE (phytotoxicity rating),[1]; 250 g ai/ha,100
same,Post-emerge Herbicidal Activity CASOB (phytotoxicity rating),[2]; 63 g ai/ha,70
same,Post-emerge Herbicidal Activity CASOB (phytotoxicity rating),[2]; 250 g ai/ha,100
same,Post-emerge Herbicidal Activity AMARE (phytotoxicity rating),"[3]; 63 g ai/ha, rating scale 0-100 (0 no damage, 100 complete death)",100
same,Post-emerge Herbicidal Activity AMARE (phytotoxicity rating),"[3]; 250 g ai/ha, rating scale 0-100",100
same,Post-emerge Herbicidal Activity DIGSA (phytotoxicity rating),[4]; 63 g ai/ha,30
same,Post-emerge Herbicidal Activity DIGSA (phytotoxicity rating),[4]; 250 g ai/ha,90
same,Post-emerge Herbicidal Activity ECHCG (phytotoxicity rating),[5]; 63 g ai/ha,40
same,Post-emerge Herbicidal Activity ECHCG (phytotoxicity rating),[5]; 250 g ai/ha,100
same,Post-emerge Herbicidal Activity ABUTH (phytotoxicity rating),[6]; 63 g ai/ha,100
same,Post-emerge Herbicidal Activity ABUTH (phytotoxicity rating),[6]; 250 g ai/ha,100
same,Post-emerge Herbicidal Activity CHEAL (phytotoxicity rating),[7]; 63 g ai/ha,100
same,Post-emerge Herbicidal Activity CHEAL (phytotoxicity rating),[7]; 250 g ai/ha,100
same,Post-emerge Herbicidal Activity SETVI (phytotoxicity rating),[8]; 63 g ai/ha,40
same,Post-emerge Herbicidal Activity SETVI (phytotoxicity rating),[8]; 250 g ai/ha,95
same,phytotoxicity rating AMARE,[9]; 63 g ai/ha,100
same,phytotoxicity rating AMARE,[9]; 250 g ai/ha,100
same,phytotoxicity rating RICE,[10]; 63 g ai/ha,30
same,phytotoxicity rating RICE,[10]; 250 g ai/ha,99
same,phytotoxicity rating CORN,[11]; 63 g ai/ha,25
same,phytotoxicity rating CORN,[11]; 250 g ai/ha,95
same,Post-emerge Herbicidal Activity RICE (crop damage rating),[12]; 63 g ai/ha,50
same,Post-emerge Herbicidal Activity RICE (crop damage rating),[12]; 250 g ai/ha,90
same,Post-emerge Herbicidal Activity CORN (crop damage rating),[13]; 63 g ai/ha,30
same,Post-emerge Herbicidal Activity CORN (crop damage rating),[13]; 250 g ai/ha,90
same,phytotoxicity rating IPOHE,[14]; 63 g ai/ha,50
same,phytotoxicity rating IPOHE,[14]; 250 g ai/ha,100
same,phytotoxicity rating CASOB,[15]; 63 g ai/ha,100
same,phytotoxicity rating CASOB,[15]; 250 g ai/ha,100
same,phytotoxicity rating DIGSA,[16]; 63 g ai/ha,100
same,phytotoxicity rating DIGSA,[16]; 250 g ai/ha,100
same,phytotoxicity rating ECHCG,[17]; 63 g ai/ha,60
same,phytotoxicity rating ECHCG,[17]; 250 g ai/ha,100
same,phytotoxicity rating ABUTH,[18]; 63 g ai/ha,100
same,phytotoxicity rating ABUTH,[18]; 250 g ai/ha,100
same,phytotoxicity rating CHEAL,[19]; 63 g ai/ha,100
same,phytotoxicity rating CHEAL,[19]; 250 g ai/ha,100
same,phytotoxicity rating SETVI,[20]; 63 g ai/ha,90
same,phytotoxicity rating SETVI,[20]; 250 g ai/ha,100
